One assay has as its system F. graminearum. To be noted: F. graminearum; minimum inhibitory concentration, achieving a score of 1 or greater.

≈ marks a conversion by molar mass, not a printed value. Like-named read-outs stand apart in the source and are kept apart here. Residues, ends and D or L forms follow the SMILES beside them.

Turning to `CC[C@H](C)[C@H](NC(=O)CNC(=O)[C@@H](NC(=O)[C@@H](NC(=O)[C@@H](NC(=O)CNC(=O)[C@@H]1CCCN1C(=O)CNC(=O)[C@H](C)NC(=O)[C@H](CC(C)C)NC(=O)[C@H](C)NC(=O)[C@H](CCCNC(=N)N)NC(=O)[C@@H](NC(=O)[C@H](CCCNC(=N)N)NC(=O)[C@@H](NC(=O)[C@H](CCCNC(=N)N)NC(=O)[C@H](CCCNC(=N)N)NC(=O)[C@@H]1CCCN1C(=O)[C@@H](NC(=O)[C@H](Cc1c[nH]cn1)NC(=O)[C@H](CCCNC(=N)N)NC(=O)[C@@H](NC(=O)[C@H](C)NC(=O)[C@H](CCCNC(=N)N)NC(=O)[C@H](Cc1ccc(O)cc1)NC(=O)[C@@H](NC(=O)[C@H](CCCNC(=N)N)NC(=O)[C@H](CCCNC(=N)N)NC(=O)[C@@H](NC(=O)[C@H](C)NC(=O)[C@H](CCCNC(=N)N)NC(=O)[C@@H](N)CCC(N)=O)C(C)C)[C@@H](C)CC)[C@@H](C)CC)[C@@H](C)CC)[C@@H](C)CC)[C@@H](C)CC)C(C)C)[C@@H](C)O)[C@@H](C)CC)C(=O)N[C@@H](C)C(=O)N[C@@H](Cc1c[nH]cn1)C(=O)N[C@@H](C)C(=O)N[C@@H](CCCCN)C(=O)N[C@@H](CO)C(=O)N[C@@H](CCC(N)=O)C(=O)N[C@@H](CC(C)C)C(=O)N[C@@H](Cc1c[nH]c2ccccc12)C(=O)O` [Peptide 3] (H-QRAVRRIYRAIRHIPRRIRIRALAGPGVTIGIAHAKSQLW-OH), the results for the MIC with F. graminearum and in the assay with F. moniliforme were 0.013 ng/mL (≈ 0.00281 nM) and 13, respectively. The “% Inhibition of Growth” value with E. coli (concentration 3.00 µg/ml), in the assay on E. coli (concentration 6.25 µg/ml), in the assay on E. coli (concentration 12.5 µg/ml), in the assay on E. coli (concentration 25 µg/ml), in the assay on E. coli (concentration 50 µg/ml) and in the assay with P. syringae (concentration 3.00 µg/ml) was 0% in each case. The “% Inhibition of Growth” value with P. syringae (concentration 6.25 µg/ml) amounted to 11%; in the assay with P. syringae (concentration 12.5 µg/ml) it was 30%; in the assay with P. syringae (concentration 25 µg/ml), 48%; in the assay on P. syringae (concentration 50 µg/ml), 52%; with E. stewartii (concentration 3.00 µg/ml), 0%; in the assay on E. stewartii (concentration 6.25 µg/ml) it was 0%. Moreover, the “% Inhibition of Growth” value in the assay with E. stewartii (concentration 12.5 µg/ml) was 49%; in the assay on E. stewartii (concentration 25 µg/ml), 80%; with E. stewartii (concentration 50 µg/ml), 100%.

The record behind these values is patent EP0678100B1, “SYNTHETIC AMPHIPATHIC PEPTIDES WITH ANTIMICROBIAL ACTIVITY” (PIONEER HI-BRED INTERNATIONAL, INC., priority 1993, dated 1998).
